Results on 14 compounds are retold here after patent US7659277B2, “Ubiquitin ligase inhibitors and methods related thereto” (Proteologies, Ltd., priority 2003, dated 2010).

One test concerns the target T1, POSH (Homo sapiens, UniProt Q7Z6J0).
T1 construct: GST-POSH lot NB81/p.118 3.6 mg/ml; fused on or other part: GST tag, used for detection with anti-GST XL665
T1 sequence (Q7Z6J0 1-269 limits assumed): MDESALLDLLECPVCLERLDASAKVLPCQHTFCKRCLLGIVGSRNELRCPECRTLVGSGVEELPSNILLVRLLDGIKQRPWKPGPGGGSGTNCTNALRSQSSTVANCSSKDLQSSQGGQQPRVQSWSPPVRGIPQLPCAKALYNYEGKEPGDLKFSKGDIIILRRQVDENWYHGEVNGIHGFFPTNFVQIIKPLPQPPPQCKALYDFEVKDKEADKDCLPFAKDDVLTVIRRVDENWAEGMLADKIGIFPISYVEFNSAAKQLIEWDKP
The test can be described thus: Selectivity (% A in 1 μM), ubiquitin ligase activity of POSH. It is filed as biochemical. The conditions noted are these: read-out: Selectivity (% A* in 1 μM) POSH. The method, then: Experimental Protocols: 1. HTS Screening Assay Procedure • Microplates 10109D to 10114D compounds at 1 mM. • (Controls in column 1). • All compounds were perchase from ChemBridge corporation: ChemBridge corporation 16981 Via Tazon, Suite G San Diego, Calif. 92127 a. Microplates Labeling • Put labels to 6 PS U-bottom clear microplate. • Put labels to 18 black microplates (triplicats). b. Microplates Preparation • Put 100 μl GST-POSH at 33 nM in wells of the clear PS U-bottom microplates (exept wells A1-D1). • Negative control: place 100 μl dH2O in wells A1-D1. • (Positive control: place 100 μl GST-POSH at 33 nM in wells E1-H1). • Put 8 μl enzymes solution ×4 to black microplates (column 1 to 11). c. Incubation of E3 with Compounds • Transfer 5 μl of compounds (at 1 mM) to the microplates containing 100 μl GST-POSH. • Add 5 μl of DMSO to controls column 1. • Incubation 30 minutes at RT. d. […] 2. […] Microplates Labeling • Put labels to 4 clear PP clear microplate (18.2 μM, 9.1 uM, 1.82 uM, 910 nM,). • Put labels to 5 clear PS U-bottom clear microplate 4.44 μM, 909, 444, 91 and 44 nM) • Put labels to 15 black microplates (triplicates). f. Original Microplate Dilutions • Put DMSO 40 μl to (18.2 μM, 1.82 uM plates) and 20 ul to (9.1 uM, 910 nM plates. • Mix by pipetation the original microplate (3× up and down 45 μl). • Transfer 10 μl of compounds from the original microplate (at 91 μM) to the next microplate (=18.2 μM) on splitting apparatus. • Mix by pipetation the 18.2 uM microplate (3× up and down 45 μl). • Transfer 20 μl of compounds from the 18.2 uM microplate to the next microplate (=9.1 μM) on splitting apparatus. • Mix by pipetation the 9.1 uM microplate (3× up and down 45 μl). • Transfer 10 μl of compounds from the 9.1 uM microplate to the next microplate (=1.82 μM) on splitting apparatus. • Mix by pipetation the 1.82 uM microplate (3× up and down 45 μl). • Transfer 20 μl of compounds from the 1.82 uM microplate to the next microplate (=910 nM) on splitting apparatus • Mix by pipetation. g. Microplates Preparation • Put 123 μl GST-POSH at 33 nM in wells of the 5 clear PS U-bottom clear microplates. • Positive control: place 123 μl GST-POSH at 33 nM in well A12-h12 13 μl DMSO. • Negative control: place 123 μl dH2O in well B1 and 13 μl DMSO. • Put 8 μl enzymes solution ×4 to 15 black microplates. • Controls: put 8 μl enzymes solution ×4 to wells A1 to F1. h. Incubation of POSH with Compounds • Take 7 μl of compounds at original plate (91 μM) and put into the 4.44 μM labeled microplate containing 123 μl GST-POSH, on splitting apparatus. • Mix by pipetation (3× up and down 115 μl), note time. • Take 7 μl of compounds at 18.2 μM and put into the 910 nM labeled microplate containing 123 μl GST-POSH, on splitting apparatus. • Mix by pipetation (3× up and down 115 μl), note time. • Take 7 μl of compounds at 9.1 μM and put into the 444 nM labeled microplate containing 123 μl GST-POSH, on splitting apparatus. • Mix by pipetation (3× up and down 115 μl), note time. • Take 7 μl of compounds at […] and put into the 91 nM labeled microplate containing 123 μl GST-POSH, on splitting apparatus. • Mix by pipetation (3× up and down 115 μl), note time. • Take 7 μl of compounds at 91.0 nM and put into the 44 nM labeled microplate containing 123 μl GST-POSH, on splitting apparatus. • Mix by pipetation (3× up and down 115 μl), note time. • Incubation 30 minutes at RT. i.

The next test has as its system HIV-1. The test can be described thus: HIV maturation (budding) in virus-like particle assay, HIV-1 p24 antigen ELISA. It is filed as cell-based. The conditions noted are these: Human immunodeficiency virus 1, read-out: Budding (3 μM). From the text: Compounds were further assessed for effects on maturation of HIV particles in a virus-like particle assay.
Background: ELISA stands for enzyme-linked immunosorbent assay.

As to `COc1ccc(/C=N/c2ccc(Nc3ccccc3)cc2)c2ccccc12` [Compound 55], the remaining activity at 1 µM on POSH was found to be 40%. The activity at 3 µM in the test with HIV-1 was determined as 55%.

For the compound `Cc1ccc(/N=C/c2cccc(O)c2O)cc1C` [Compound 56], on POSH, the remaining activity at 1 µM was 27%. The activity at 3 µM in the test on HIV-1 amounted to 59%.

Take `OCc1cccc(/N=C/c2cccc(O)c2O)c1` [Compound 57]: the remaining activity at 1 µM on POSH was 20%. Besides, in the test on HIV-1, the activity at 3 µM stood at 61%.

For the compound `CC(C)(C)c1ccc(O)c(/N=C/C=C/c2cccc([N+](=O)[O-])c2)c1` [Compound 59], on POSH, the remaining activity at 1 µM was 26%. The activity at 3 µM in the test on HIV-1 is 61%.

For the compound `Cc1cc([N+](=O)[O-])ccc1/N=C/c1ccc[nH]1` [Compound 70], on POSH, the remaining activity at 1 µM is 151%. Moreover, the activity at 3 µM with HIV-1 was determined as 57%.

Regarding `Cc1c(C(=O)/C=C/c2ccccc2)c2cc(O)ccc2n1C` [Compound 75], the remaining activity at 1 µM on POSH stood at 103%. For the same compound, the activity at 3 µM in the test with HIV-1 was found to be 39%.

On to `Cc1c(C(=O)/C=C/c2cccs2)c2cc(O)ccc2n1C` [Compound 76], for which the remaining activity at 1 µM at POSH turned out to be 35%. Also, the activity at 3 µM in the test with HIV-1 amounted to 48%.

For `O=[N+]([O-])c1ccc(CN2CCN(c3cccc(Cl)c3)CC2)o1` [Compound 80], the remaining activity at 1 µM at POSH was 50%. The activity at 3 µM in the test on HIV-1 was 55%.

With `CCCCOc1ccc(NC(=S)N2CCn3c4c(c(=O)c5cc(C)ccc53)CCC42)cc1` (stereo not shown) [Compound 81], the remaining activity at 1 µM at POSH came to 3%. The activity at 3 µM in the test with HIV-1 was 63%.

Regarding `O=c1nc(-c2ccc(Br)cc2)cc(-c2ccc([N+](=O)[O-])cc2)[nH]1` [Compound 84], the remaining activity at 1 µM at POSH was 67%. The activity at 3 µM in the test with HIV-1 was determined as 47%.

On to `C=CCN1C(=O)/C(=C/c2c3ccccc3cc3ccccc23)SC1=S` [Compound 109], for which, on POSH, the remaining activity at 1 µM came to 67%. For the same compound, in the test with HIV-1, the activity at 3 µM was 60%.

For `CN(C)c1ccc(/C=C2\SC(=S)N(C3CCS(=O)(=O)C3)C2=O)cc1` (stereo not shown) [Compound 110], at POSH, the remaining activity at 1 µM was determined as 94%. Moreover, the activity at 3 µM with HIV-1 turned out to be 36%.

With `COc1ccc(NC(=O)c2cc3cccc(N)c3cc2O)cc1` [Compound 114], the remaining activity at 1 µM at POSH came out at 31%. Besides, the activity at 3 µM in the test with HIV-1 was determined as 46%.

For `CN1C(=O)/C(=C\c2ccc(-c3cccc([N+](=O)[O-])c3)o2)SC1=S` [Compound 115], at POSH, the remaining activity at 1 µM is 8%. Besides, in the test on HIV-1, the activity at 3 µM was found to be 48%.
